The test system of one test is S. aureus ATCC 25923. Put plainly: In vitro antibacterial evaluation, MIC by agar dilution, S. aureus ATCC 25923. The conditions noted are these: Staphylococcus aureus, ATCC25923. It counts as cell-based. The essentials:
(§1)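 Log-phase isolates were spot-inoculated at about 10^4 cfu per spot onto Mueller-Hinton agar plates containing twofold compound dilutions (highest working concentration 128 μg/mL, lowest ≤0.25 μg/mL, duplicates). After 16-20 h at 35-36 °C, the lowest growth-inhibiting level was taken as MIC, per NCCLS agar dilution.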
On the technique in general: In agar dilution the substance is mixed into plates at graded concentrations.

Test [1] deals with S. epidermidis ATCC 31432. Put plainly: In vitro antibacterial evaluation, MIC by agar dilution, S. epidermidis ATCC 31432. The format is cell-based. The conditions noted are these: Staphylococcus epidermidis, ATCC31432. The essentials: as §1
For test [2], the system named is S. aureus 76 (Meth^R)(lac^+). Put plainly: In vitro antibacterial evaluation, MIC by agar dilution, S. aureus 76. The conditions noted are these: Staphylococcus aureus, read-out: MIC. The format is cell-based. The essentials:
as §1

Test [3] concerns S. aureus Col8A (Meth^S)(lac^-). Description: In vitro antibacterial evaluation, MIC by agar dilution, S. aureus Col8A. It counts as cell-based. Conditions: Staphylococcus aureus. The essentials: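 Log-phase isolates were spot-inoculated at about 10^4 cfu onto Mueller-Hinton agar carrying duplicate two-fold compound levels, 128 μg/mL to ≤0.25 μg/mL, following NCCLS (1991). Plates were read after 16-20 h at 35°-36° C. The lowest growth-inhibiting concentration gave the MIC (μg/ml).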

For another test, the system named is S. haemolyticus (Meth^R). Put plainly: In vitro antibacterial evaluation, MIC by agar dilution, S. haemolyticus. It counts as cell-based. Conditions: Staphylococcus haemolyticus, read-out: MIC. The essentials:
as §1

The test system of the next test is E. faecium ATCC 35667. Put plainly: In vitro antibacterial evaluation, MIC by agar dilution, E. faecium ATCC 35667. It counts as cell-based. Conditions: Enterococcus faecium, ATCC35667, read-out: MIC. The essentials: as §1
A further test has as its system E. faecalis ATCC 29212. Description: In vitro antibacterial evaluation, MIC by agar dilution, E. faecalis ATCC 29212. It counts as cell-based. Conditions: Enterococcus faecalis, ATCC29212. The essentials:
as §1

For the next test, the system named is E. coli ATCC 25922. Description: In vitro antibacterial evaluation, MIC by agar dilution, E. coli ATCC 25922. It counts as cell-based. The conditions noted are these: Escherichia coli, ATCC25922, read-out: MIC. The essentials:
as §1

The next test concerns P. aeruginosa ATCC 27853. Put plainly: In vitro antibacterial evaluation, MIC by agar dilution, P. aeruginosa ATCC 27853. Conditions: Pseudomonas aeruginosa, ATCC27853, read-out: MIC. It counts as cell-based. Put shortly: as §1
Test [4] concerns methicillinsusceptible S. aureus strain ATCC 13709. Put plainly: In vivo antibacterial evaluation, murine model for lethal bacteremic peritonitis. The arrangement: species or system S. aureus in female Swiss-Webster mice. The conditions noted are these: Staphylococcus aureus, ATCC13709, sc, 72 h, two equal SC doses at challenge and 2 hours later, mice, probit, read-out: ED50. Put shortly: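 Female Swiss-Webster mice received IP an LD100 bacterial titer in 7% hog gastric mucin, then two equal subcutaneous doses (at challenge and 2 h later) of two-fold increments of drug, range 0.01–512 mg/kg. Survival scored at 72 h; PD50 (total mg/kg) by probit, groups of 10.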

The test system is the same in test [5]. Put plainly: Challenge strain MIC. It counts as cell-based. Conditions: Staphylococcus aureus, ATCC13709, S. aureus ATCC 13709; read-out: Challenge str MIC. The protocol: The compounds of the invention were evaluated against several β-lactamresistant bacteria strains by determining the minimum inhibitory concentration (MIC, μg/ml) of each compound with respect to each strain. The MIC, the lowest concentration of antibiotic which inhibits growth of the test organism, was determined by the agar dilution method.
To determine the MIC for bacterial isolates, the test compound was incorporated in a series of two-fold dilutions into liquified Mueller-Hinton agar. Upon solidification, a number of different bacterial strains were spot inoculated with a replicating device onto the agar surface. […] The procedures used in these studies have been standardized by the National Committee for Clinical Laboratory Standards (NCCLS), as per the NCCLS publication entitled METHODS FOR DILUTION ANTIMICROBIAL SUSCEPTIBILITY TESTS (1991), which is incorporated herein by reference.
Aliquots of antimicrobial agents were prepared in phosphate buffered saline (PBS) at pH 7.2. Tween 20 or DMSO was used as a solubilizing vehicle as needed. Standard methods of vortexing, sonicating and gentle heat were used to facilitate solubilizing the test agent. Typically, the concentration of the stock solution was 10× that of the highest drug concentration tested. A 1.28 mg/mL stock solution was used with a subsequent highest working concentration of 128 μg/mL. Serial two-fold dilutions were done through ≤0.25 μg/mL. Each drug level was tested in duplicate. Two-fold drug dilutions were done in sterile 50 mL tubes with a final drug volume of 5 mL. Upon the addition of 45 mL of molten agar, a 10-fold dilution resulted. Two, 25 mL. plates were then poured into 15×150 mm square Petri plates with grids and allowed to harden.
A control plate with a reference drug, either cefotaxime, vancomycin or imipenem, was used as the positive growth control. Stock concentrations of reference antibiotics were prepared and frozen at -80° C. Upon preparation, the control plates were sealed and stored in the refrigerator for up to 1 week prior to use; however, imipenem control plates had to be prepared just prior to use. All test plates were used within 24 hours of preparation.
Satisfactory results were obtained where the inoculum contained about 10^4 colony forming units (cfu) ±0.5 logs. Starting with pure cultures of the test isolates on agar plates, a few isolated colonies were transferred to a tube of nutrient broth and allowed to grow 4-6 hours at 35°-36° C. to reach log-phase growth. Dropwise addition of the broth culture to PBS was done to match a 0.5 McFarland turbidity standard equal to 10^8 cfu/mL. This was further diluted ten-fold in PBS to reach a working inoculum concentration of 10^7 cfu/mL. When 1 μL of the working inoculum was applied to the agar surface a concentration of about 10^4 cfu per spot was obtained.
Disposable sterile 1 μL loops were used to inoculate test plates, with each isolate in a designated grid on the agar plate. An alternate method of inoculation involved the use of a replica plater, a device with 48 steel pins allowing the simultaneous inoculation of multiple isolates. After the spots had dried, the plates were incubated at 35°-36° C. for 16-20 hours. Endpoints were assessed as the minimum inhibitory concentration (MIC) of antimicrobial agent.
data reported for challenge with methicillinsusceptible S. aureus strain

Another test has as its system S. aureus ATCC 29213. Put plainly: In vitro antibacterial evaluation, MIC by agar dilution, S. aureus ATCC 29213. The format is cell-based. The conditions noted are these: Staphylococcus aureus, ATCC29213. Put shortly:
as §1

Where [6] appears, read: E. faecalis ATCC 29212, read-out: MIC.
Setting [7] is: S. aureus ATCC 29213, read-out: MIC.

The structures appear in SMILES notation. Values after ≈ are worked out from the molar mass of the structure shown. Read-outs that look alike come from different tables or passages of the source.

Consider `N#CCC(=O)N[C@@H]1C(=O)N2C(C(=O)O)=C(Sc3ccnn3-c3ccccc3)CS[C@H]12` [Cmpd 88, (7R)-7-[(Cyanoacetyl)amino]-3-(1-N-phenylpyrazol-5-ylthio)-3-cephem-4-carboxylic acid], for which the MIC – broadly, the lowest concentration that inhibits growth of the organism – against S. aureus ATCC 25923 was below 0.25 µg/mL; in test [1], below 0.25 µg/mL; in test [2] it was 16 µg/mL (≈ 36.2 µM); in test [3], below 0.25 µg/mL; in the test on S. haemolyticus (Meth^R) it was 16 µg/mL (≈ 36.2 µM); with E. faecium ATCC 35667, 2 µg/mL (≈ 4.53 µM). Further, the MIC in the test with E. faecalis ATCC 29212 (setting [6]) was 4 µg/mL (≈ 9.06 µM); in the test on E. coli ATCC 25922 it was above 32 µg/mL; in the test with P. aeruginosa ATCC 27853, above 32 µg/mL; in test [5], 0.25 µg/mL (≈ 0.566 µM). The ED50 (commonly the midpoint of the dose-response relation) in [4] is 0.31 mg/kg.

As to `Nc1nc(/C(=N/OC2CCCC2)C(=O)N[C@@H]2C(=O)N3C(C(=O)O)=C(Sc4ccnn4-c4ccccc4)CS[C@H]23)cs1` [Cmpd 89, (7R)-7-[(Z)-2-(aminothiazol-4-yl)-2-(cyclopentyloxyimino)acetamido]-3-(1-N-phenylpyrazol-5-ylthio)-3-cephem-4-carboxylic acid], the MIC was 0.5 µg/mL (≈ 0.817 µM) in the test with S. aureus ATCC 29213 (setting [7]); below 0.25 µg/mL in the test with S. aureus ATCC 25923 (S. aureus ATCC 25923, read-out: MIC); below 0.25 µg/mL in [1] (S. epidermidis ATCC 31432, read-out: MIC); 4 µg/mL (≈ 6.54 µM) in test [2]; 0.5 µg/mL (≈ 0.817 µM) in test [3]; 8 µg/mL (≈ 13.1 µM) in the test on S. haemolyticus (Meth^R). The MIC with E. faecium ATCC 35667 was found to be 4 µg/mL (≈ 6.54 µM); in the test on E. faecalis ATCC 29212 (setting [6]), 2 µg/mL (≈ 3.27 µM); with E. coli ATCC 25922 it was 2 µg/mL (≈ 3.27 µM); in the test on P. aeruginosa ATCC 27853 it was 8 µg/mL (≈ 13.1 µM); in test [5] it was 0.5 µg/mL (≈ 0.817 µM). Moreover, the ED50 in test [4] is above 10 mg/kg.

Consider `O=C(CSc1ccccc1)N[C@@H]1C(=O)N2C(C(=O)O)=C(Sc3ccnn3-c3ccccc3)CS[C@H]12` [Cmpd 119, (7R)-7-[(phenylthioacetyl)amino]-3-(1-N-phenylpyrazol-5-ylthio)-3-cephem-4-carboxylic acid], for which the MIC with S. aureus ATCC 29213 (setting [7]) was 0.125 µg/mL (≈ 0.238 µM); in [2] it was 8 µg/mL (≈ 15.2 µM); in test [3], 0.06 µg/mL (≈ 0.114 µM); with S. haemolyticus (Meth^R), 16 µg/mL (≈ 30.5 µM); with E. faecium ATCC 35667, 1 µg/mL (≈ 1.91 µM); with E. faecalis ATCC 29212 (setting [6]), 1 µg/mL (≈ 1.91 µM). Also, the results for the MIC (in the test on E. coli ATCC 25922; with P. aeruginosa ATCC 27853; in test [5]) were above 32 µg/mL, above 32 µg/mL and 0.25 µg/mL (≈ 0.477 µM), respectively. In addition, the ED50 in test [4] is above 5 mg/kg.

For `N#CCSCC(=O)N[C@@H]1C(=O)N2C(C(=O)O)=C(Sc3ccnn3-c3ccccc3)CS[C@H]12` [Cmpd 122, (7R)-7-[(cyanomethylthioacetyl)amino]-3-(1-N-phenylpyrazol-5-ylthio)-3-cephem-4-carboxylic acid], the MIC turned out to be 0.25 µg/mL (≈ 0.513 µM) against S. aureus ATCC 29213; 8 µg/mL (≈ 16.4 µM) in test [2]; 0.25 µg/mL (≈ 0.513 µM) in test [3]; 16 µg/mL (≈ 32.8 µM) in the test on S. haemolyticus (Meth^R); 4 µg/mL (≈ 8.2 µM) in the test on E. faecium ATCC 35667; 4 µg/mL (≈ 8.2 µM) with E. faecalis ATCC 29212 (setting [6]). For the same compound, the values for the MIC (with E. coli ATCC 25922; in the test on P. aeruginosa ATCC 27853; in [5]) were above 32 µg/mL, above 32 µg/mL and 0.125 µg/mL (≈ 0.256 µM), respectively. Besides, the ED50 in test [4] came out at 1.13 mg/kg.

For the compound `O=C(O)C1=C(Sc2ccnn2-c2ccccc2)CS[C@@H]2[C@H](NC(=O)/C(=N\O)c3ccccc3)C(=O)N12` [Cmpd 130, (7R)-7-[(Z)-2-(Phenyl)-2-(hydroxyimino)acetamido]-3-(1-N-(phenyl)pyrazol-5-ylthio)-3-cephem-4-carboxylic acid], the MIC in the test on S. aureus ATCC 29213 (setting [7]) was found to be 0.125 µg/mL (≈ 0.24 µM); in test [2], 4 µg/mL (≈ 7.67 µM); in [3], 0.25 µg/mL (≈ 0.479 µM); in the test on S. haemolyticus (Meth^R), 4 µg/mL (≈ 7.67 µM); in the test on E. faecium ATCC 35667 it was 0.5 µg/mL (≈ 0.959 µM); with E. faecalis ATCC 29212, 0.25 µg/mL (≈ 0.479 µM). Besides, the MIC with E. coli ATCC 25922 was above 32 µg/mL; with P. aeruginosa ATCC 27853 it was above 32 µg/mL; in [5] it was 0.125 µg/mL (≈ 0.24 µM). Also, in test [4], the ED50 was above 10 mg/kg.

(Values after US5607926A, “Cephalosporin antibiotics” (Microcide Pharmaceuticals, Inc., priority 1995, dated 1997).)
